# Data from patent US20120095108A1, “COMPOSITION CONTAINING MICROBIAL ZEAXANTHIN AND PREPARATION THEREOF” (Vigenent Inc., priority 2010, published 2012).
# How the values were obtained:
# Type in all cases: cell-based
# [1] = tested on: colorectal adenocarcinoma (LS123); assay: Anti-proliferation MTT assay, LS123; conditions: Homo sapiens, 24 hrs, read-out: cell viability
# Protocol: (§1) Cancer cells were cultured on a dish, and the cells were treated with microbial zeaxanthin dissolved in dimethyl sulfoxide. After 24 hrs incubation, thiazolyl blue tetrazolium bromide was added to the cells and incubated for 4 hours. The medium was removed and the crystals were dissolved in dimethyl sulfoxide followed by measuring the absorbance at 590 nm. Cell viability=(Abs of cell treated zeaxanthin/Abs of cell with no treatment)*100%. Since xanthophylls have been reported to be associated with lower risk of cancers (Orjuela et al., (2005) Cancer Epidemiol Biomarkers Prey. 14:1433-40; Kelemen et al., (2006) Am J Clin Nutr. 83: 1401-10; Zhang et al., (2007) Nutr Cancer. 59:46-53; Tamimi et al., (2009) Cancer Res. 69: 9323-9; Lee et al., (2009) Cancer Epidemiol Biomarkers Prey. 18:1730-9), it is necessary to determine if the microbial zeaxanthin contains anti-cancer activity. […] For comparison, the cell viabilities of non-cancer cells are 105.6% for retinal pigmented epithelium cell (ARPE-19); 102.3% for embryonic fibroblast (BCRC60118) and 95.8% for human skin fibroblast (BCRC 60153). […] For comparison, the cell viabilities of non-cancer cells are 124.2% for retinal pigmented epithelium cell (ARPE-19); 101.2% for embryonic fibroblast (BCRC60118) and 99.8% for human skin fibroblast (BCRC 60153). […]
# [2] = MTT assay, non-cancer cells BCRC60118; conditions: human, embryonic fibroblast cells BCRC60118 (non-cancer), read-out: cell viability of non-cancer cells
# Protocol: as §1
# [3] = tested on: gastric adenocarcinoma (AGS); assay: Anti-proliferation MTT assay, AGS; conditions: Homo sapiens, 24 hrs, read-out: cell viability
# Protocol: as §1
# [4] = tested on: breast adenocarcinoma (MCF7); assay: Anti-proliferation MTT assay, MCF7; conditions: Homo sapiens, 24 hrs, read-out: cell viability
# Protocol: as §1
# [5] = tested on: pharynx squamous cell carcinoma (FaDu); assay: Anti-proliferation MTT assay, FaDu; conditions: Homo sapiens, 24 hrs
# Protocol: as §1
# [6] = MTT assay, non-cancer cells ARPE-19; conditions: human, ARPE-19 retinal pigmented epithelium cells (non-cancer), read-out: cell viability of non-cancer cells
# Protocol: as §1
# [7] = MTT assay, non-cancer cells BCRC 60153; conditions: human, skin fibroblast cells BCRC 60153 (non-cancer), read-out: cell viability of non-cancer cells
# Protocol: as §1
# [8] = tested on: prostate carcinoma (PC-3); assay: Anti-proliferation MTT assay, PC-3; conditions: Homo sapiens, 24 hrs, read-out: cell viability
# Protocol: as §1
# [9] = tested on: ovarian cancer (TOV-112D); assay: Anti-proliferation MTT assay, TOV-112D; conditions: Homo sapiens, TOV112D, 24 hrs, read-out: cell viability
# Protocol: as §1
# [10] = tested on: choriocarcinoma (JAR); assay: Anti-proliferation MTT assay, JAR; conditions: Homo sapiens, 24 hrs, read-out: cell viability
# Protocol: as §1
# [11] = tested on: thyroid squamous cell carcinoma (SW579); assay: Anti-proliferation MTT assay, SW579; conditions: Homo sapiens, 24 hrs
# Protocol: as §1
# [12] = tested on: bladder primary carcinoma (5637); assay: Anti-proliferation MTT assay, 5637; conditions: Homo sapiens, 24 hrs, read-out: cell viability
# Protocol: as §1
# [13] = tested on: pancreatic adenocarcinoma (BxPC-3); assay: Anti-proliferation MTT assay, BxPC-3; conditions: Homo sapiens, 24 hrs, read-out: cell viability
# Protocol: as §1
smiles,measurement,setting,value
"CC1=C(/C=C/C(C)=C/C=C/C(C)=C/C=C/C=C(C)/C=C/C=C(C)/C=C/C2=C(C)C[C@@H](O)CC2(C)C)C(C)(C)C[C@H](O)C1 (stereo in doubt) [microbial zeaxanthin, 4-[18-(4-hydroxy-2,6,6-trimethyl-1-cyclohexenyl)-3,7,12,16-tetramethyl-octadeca-1,3,5,7,9,11,13,15,17-nonaenyl]-3,5,5-trimethyl-cyclohex-3-en-1-ol]",viability at 30 µg/mL,"[1]; LS-123, 30 μg/ml",72.3%
same,viability at 60 µg/mL,"[1]; LS-123, 60 μg/ml",75.3%
same,"viability at 24 h, 30 μg/ml",[2]; 30 μg/ml,102%
same,"viability at 24 h, 60 μg/ml",[2]; 60 μg/ml,101%
same,viability at 30 µg/mL,[3]; 30 μg/ml,57.3%
same,viability at 60 µg/mL,[3]; 60 μg/ml,40.1%
same,viability at 30 µg/mL,[4]; 30 μg/ml,78.7%
same,viability at 60 µg/mL,[4]; 60 μg/ml,61.6%
same,viability at 30 µg/mL,[5]; 30 μg/ml,72.6%
same,viability at 60 µg/mL,[5]; 60 μg/ml,28.5%
same,"viability at 24 h, 30 μg/ml",[6]; 30 μg/ml,106%
same,"viability at 24 h, 60 μg/ml",[6]; 60 μg/ml,124%
same,"viability at 24 h, 30 μg/ml",[7]; 30 μg/ml,95.8%
same,"viability at 24 h, 60 μg/ml",[7]; 60 μg/ml,99.8%
same,viability at 30 µg/mL,[8]; 30 μg/ml,74%
same,viability at 60 µg/mL,[8]; 60 μg/ml,67.7%
same,viability at 30 µg/mL,[9]; 30 μg/ml,70.3%
same,viability at 60 µg/mL,[9]; 60 μg/ml,20.3%
same,viability at 30 µg/mL,[10]; 30 μg/ml,72.1%
same,viability at 60 µg/mL,[10]; 60 μg/ml,40%
same,viability at 30 µg/mL,[11]; 30 μg/ml,70.9%
same,viability at 60 µg/mL,[11]; 60 μg/ml,71.7%
same,viability at 30 µg/mL,[12]; 30 μg/ml,45.9%
same,viability at 60 µg/mL,[12]; 60 μg/ml,16.4%
same,viability at 30 µg/mL,[13]; 30 μg/ml,75.6%
same,viability at 60 µg/mL,[13]; 60 μg/ml,33.4%
